The text below walks through data of patent publication US20250179045A1, “LPAR1 ANTAGONISTS AND USES THEREOF” (Contineum Therapeutics, Inc., priority 2021, published 2025).

This test deals with human LPA1 (Homo sapiens, UniProt Q92633). The test is described as follows: In vitro functional assay of lysophosphatidic acid receptor 1 activity (calcium flux). Format: cell-based. Conditions: B103 cells stably expressing human LPA1; Fluo-4 NW calcium flux after lysophosphatidic acid (18:1) at EC80; compounds 100 pM to 10 μM; read-out: LPA1 IC50. Put shortly:
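B103 cells stably expressing human LPA1 plated onto compound for 24 h at 37 °C, loaded with Fluo-4 NW dye, re-exposed to compound (30 min 37 °C plus 30 min room temp).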
A general note: A change in cytosolic calcium serves as a functional read-out for many receptors and channels.

Molecules are shown by their SMILES.

Chain of human LPA1 (Q92633 whole entry): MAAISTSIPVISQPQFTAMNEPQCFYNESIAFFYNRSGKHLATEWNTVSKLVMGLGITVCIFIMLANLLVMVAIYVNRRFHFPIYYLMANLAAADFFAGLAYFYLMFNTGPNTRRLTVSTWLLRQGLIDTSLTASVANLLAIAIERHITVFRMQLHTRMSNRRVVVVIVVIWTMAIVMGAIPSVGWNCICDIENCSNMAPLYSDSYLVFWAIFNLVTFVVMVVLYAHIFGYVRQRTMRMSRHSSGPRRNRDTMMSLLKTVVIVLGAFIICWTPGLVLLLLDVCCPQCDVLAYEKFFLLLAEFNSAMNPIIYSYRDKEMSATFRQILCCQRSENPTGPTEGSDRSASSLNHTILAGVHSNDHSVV

By IC50 is commonly meant the concentration at which inhibition is half-maximal. For `COc1ccc(NC(=O)[C@]2(c3ccccc3C(C)C)C[C@@H](Cc3nnn[nH]3)C2)c(OC(F)F)n1` [Example 120, trans-3-((1H-tetrazol-5-yl)methyl)-N-(2-(difluoromethoxy)-6-methoxypyridin-3-yl)-1-(2-isopropylphenyl)cyclobutane-1-carboxamide], the IC50 is below 10 nM.
